This note sets out measurements from patent US8445501B2, “Substituted 7-carboxamido-pyrrolo[3,2-d]pyrimidines” (Takeda GmbH, priority 2008, dated 2013).

In general, IC50 refers to the concentration that inhibits the measured activity by half. Higher therefore signals weaker potency in that assay.

The target in the test is T1, human PDE5 (Homo sapiens, UniProt O76074).
T1 construct: from tissue; host or cells: platelets from fresh blood of human donors (lysate, 10,000 g supernatant)
As to the kind of experiment: Inhibition of the type 5 phosphodiesterase (PDE5) activity, modified SPA test with platelet lysate. It counts as biochemical. The following applies: PDE5 from human platelet lysate, 0.5 μM cGMP. As for the experimental part: Method for Measuring Inhibition of the Type 5 Phosphodiesterase (PDE5) Activity:
As a source for human PDE5, platelets are used. For that purpose, 150 ml fresh blood from human donors anticoagulated with citrate [final concentration 0.3% (w/v)] is centrifuged at 200 g for 10 min to obtain the so-called platelet-rich-plasma (PRP) as a supernatant. 1/10 volume of ACD solution (85 mM Na3-citrate, 111 mM D-glucose, 71 mM citric acid, pH 4.4) is added to 9/10 volume of PRP. After centrifugation (1,400 g, 10 min) the cell pellet is resuspended in 3 ml homogenization buffer (NaCl 140 mM, KCl 3.8 mM, EGTA (ethylene glycol tetraacetic acid) 1 mM, MgCl2 1 mM, Tris-HCl 20 mM, beta-mercaptoethanol 1 mM, pH 8.2) plus protease-inhibitor mix giving rise to the final concentrations of 0.5 mM Pefablock (Roche), 10 μM Leupeptin, 5 μM Trypsininhibitor, 2 mM Benzamidin and 10 μM Pepstatin A. The suspension is sonified and thereafter centrifuged for 15 min at 10,000 g. The resulting supernatant (platelet lysate) is used for enzymatic testings.
PDE5A1 activity is inhibited by the compounds of the invention in a modified SPA (scintillation proximity assay) test, supplied by Amersham Biosciences (see procedural instructions “phosphodiesterase [3H]cAMP SPA enzyme assay, code TRKQ 7090”), carried out in 96-well microtitre plates (MTP's). The test volume is 100 μl and contains 20 mM Tris buffer (pH 7.4), 0.1 mg of BSA (bovine serum albumin)/ml, 5 mM Mg^2+, 1 μM motapizone, 10 nM PDE2 inhibitor 2-(3,4-dimethoxybenzyl)-7-[(1R,2R)-2-hydroxy-1-(2-phenylethyl)propyl]-5-methylimidazo[5,1-f][1,2,4]triazin-4(3H)-one, 0.5 μM cGMP (cyclic guanosine monophosphate) (including about 50,000 cpm of [3H]cGMP as a tracer), 1 μl of the respective compound dilution in dimethylsulfoxide (DMSO) and sufficient PDE5-containing platelet lysat (10,000×g supernatant, see above) to ensure that 10-20 wt % of the cGMP is converted under the said experimental conditions. […] After a preincubation of 5 min at 37° C., the reaction is started by adding the substrate (cGMP) and the assay is incubated for a further 15 min; after that, it is stopped by adding SPA beads (50 μl). In accordance with the manufacturer's instructions, the SPA beads had previously been resuspended in water, but are then diluted 1:3 (v/v) in water; the diluted solution also contains 3 mM […] (IBMX) to ensure a complete PDE activity stop. After the beads have been sedimented (>30 min), the MTP's are analyzed in commercially available luminescence detection de-vices. The corresponding IC50 values of the compounds for the inhibition of PDE activity are deter-mined from the concentration-effect curves by means of non-linear regression.
In the case of “4-(2-Cyclopropylmethoxy-4-fluoro-5-methoxy-phenyl)-5H-pyrrolo[3,2-d]pyrimidine-7-carboxylic acid ((R)-1-acetyl-pyrrolidin-3-yl)-amide [Example 103]”, the “-log IC50 (mol/l)” value was determined as 9.33.

For the compound “4-(5-Cyclopropylmethoxy-benzo[1,3]dioxol-4-yl)-5H-pyrrolo[3,2-d]pyrimidine-7-carboxylic acid ((R)-1-propionyl-piperidin-3-yl)-amide [Example 47]”, the “-log IC50 (mol/l)” value worked out at 9.64.

In the case of “4-({1-[4-(5-Cyclopropylmethoxy-benzo[1,3]dioxol-4-yl)-5H-pyrrolo[3,2-d]pyrimidin-7-yl]-methanoyl}-amino)-piperidine-1-carboxylic acid ethyl ester [Example 2]”, the “-log IC50 (mol/l)” value turned out to be 10.01.

`CCC(=O)N1CCC(NC(=O)c2c[nH]c3c(-c4c(OCC5CC5)ccc5c4OCO5)ncnc23)CC1` [Example 1, 4-(5-Cyclopropylmethoxy-1,3-benzodioxol-4-yl)-5H-pyrrolo[3,2-d]pyrimidine-7-carboxylic acid (1-propionyl-piperidin-4-yl)-amide]: the IC50 was 77.6 pM.

The compound `COCC(=O)N1CCC(NC(=O)c2c[nH]c3c(-c4c(OCC5CC5)ccc5c4OCO5)ncnc23)CC1` [Example 3, 4-(5-Cyclopropylmethoxy-benzo[1,3]dioxol-4-yl)-5H-pyrrolo[3,2-d]pyrimidine-7-carboxylic acid [1-(2-methoxy-acetyl)piperidin-4-yl]-amide] showed an IC50 of 398 pM.

For the compound `CC(=O)N[C@H]1CC[C@H](NC(=O)c2c[nH]c3c(-c4c(OCC5CC5)ccc5c4OCO5)ncnc23)CC1` [Example 4, trans-4-(5-Cyclopropylmethoxy-benzo[1,3]dioxol-4-yl)-5H-pyrrolo[3,2-d]pyrimidine-7-carboxylic acid (4-acetylamino-cyclohexyl)-amide], the half-maximal inhibitory concentration (IC50) was 162 pM.

Compound `O=C(N[C@H]1CC[C@H](NC(=O)C2CC2)CC1)c1c[nH]c2c(-c3c(OCC4CC4)ccc4c3OCO4)ncnc12` [Example 5, trans-4-(5-Cyclopropylmethoxy-benzo[1,3]dioxol-4-yl)-5H-pyrrolo[3,2-d]pyrimidine-7-carboxylic acid {4-[(1-cyclopropyl-methanoyl)-amino]-cyclohexyl}-amide] had a 50% inhibitory concentration (IC50) of 123 pM.

Consider `CCOC(=O)N[C@H]1CC[C@H](NC(=O)c2c[nH]c3c(-c4c(OCC5CC5)ccc5c4OCO5)ncnc23)CC1` [Example 6, trans-[4-({1-[4-(5-Cyclopropylmethoxy-benzo[1,3]dioxol-4-yl)-5H-pyrrolo[3,2-d]pyrimidin-7-yl]-methanoyl}-amino)-cyclohexyl]-carbamic acid ethyl ester], for which it took 85.1 pM to reach half-maximal inhibition (IC50).

Take `CC(=O)N[C@H]1CC[C@@H](NC(=O)c2c[nH]c3c(-c4c(OCC5CC5)ccc5c4OCO5)ncnc23)CC1` [Example 7, cis-4-(5-Cyclopropylmethoxy-benzo[1,3]dioxol-4-yl)-5H-pyrrolo[3,2-d]pyrimidine-7-carboxylic acid (4-acetylamino-cyclohexyl)-amide]: the IC50 is 214 pM. Against the preceding compound, the IC50 is about 2.5-fold higher.

Take `O=C(N[C@H]1CC[C@@H](NC(=O)C2CC2)CC1)c1c[nH]c2c(-c3c(OCC4CC4)ccc4c3OCO4)ncnc12` [Example 8, cis-4-(5-Cyclopropylmethoxy-benzo[1,3]dioxol-4-yl)-5H-pyrrolo[3,2-d]pyrimidine-7-carboxylic acid {4-[(1-cyclopropyl-methanoyl)-amino]-cyclohexyl}-amide]: half-maximal inhibition (IC50) was put at 224 pM.

In the case of `COCC(=O)N[C@H]1CC[C@@H](NC(=O)c2c[nH]c3c(-c4c(OCC5CC5)ccc5c4OCO5)ncnc23)CC1` [Example 9, cis-4-(5-Cyclopropylmethoxy-benzo[1,3]dioxol-4-yl)-5H-pyrrolo[3,2-d]pyrimidine-7-carboxylic acid [4-(2-methoxy-ethanoylamino)-cyclohexyl]-amide], the half-inhibitory concentration (IC50) was 1150 pM.

On to `CCOC(=O)N[C@H]1CC[C@@H](NC(=O)c2c[nH]c3c(-c4c(OCC5CC5)ccc5c4OCO5)ncnc23)CC1` [Example 10, cis-[4-({1-[4-(5-Cyclopropylmethoxy-benzo[1,3]dioxol-4-yl)-5H-pyrrolo[3,2-d]pyrimidin-7-yl]-methanoyl}-amino)-cyclohexyl]-carbamic acid ethyl ester], for which the midpoint of inhibition, the IC50, lay at 200 pM.

The compound `CC(=O)N1CCC(NC(=O)c2c[nH]c3c(-c4c(OCC5CC5)ccc5c4OCO5)ncnc23)CC1` [Example 11, 4-(5-Cyclopropylmethoxy-benzo[1,3]dioxol-4-yl)-5H-pyrrolo[3,2-d]pyrimidine-7-carboxylic acid (1-acetyl-piperidin-4-yl)-amide] gave a half-maximal inhibitory concentration (IC50) of 145 pM. This IC50 and that of the compound before are within 1.5-fold of each other.

The compound `O=C(NC1CCN(C(=O)C2CC2)CC1)c1c[nH]c2c(-c3c(OCC4CC4)ccc4c3OCO4)ncnc12` [Example 12, 4-(5-Cyclopropylmethoxy-benzo[1,3]dioxol-4-yl)-5H-pyrrolo[3,2-d]pyrimidine-7-carboxylic acid [1-(1-cyclopropyl-methanoyl)-piperidin-4-yl]amide] gave an IC50 of 69.2 pM. Compared with the last compound, the IC50 is about 2.1-fold lower.

For `COCC(=O)N1CC[C@@H](NC(=O)c2c[nH]c3c(-c4c(OCC5CC5)ccc5c4OCO5)ncnc23)C1` [Example 13, 4-(5-Cyclopropylmethoxy-benzo[1,3]dioxol-4-yl)-5H-pyrrolo[3,2-d]pyrimidine-7-carboxylic acid [(R)-1-(2-methoxy-acetyl)pyrrolidin-3-yl]-amide], the midpoint of inhibition, the IC50, lay at 776 pM.

For `O=CN1CC[C@@H](NC(=O)c2c[nH]c3c(-c4c(OCC5CC5)ccc5c4OCO5)ncnc23)C1` [Example 14, 4-(5-Cyclopropylmethoxy-benzo[1,3]dioxol-4-yl)-5H-pyrrolo[3,2-d]pyrimidine-7-carboxylic acid ((R)-1-formyl-pyrrolidin-3-yl)-amide], the IC50 was 1380 pM.

In turn, `CC(=O)N1CC[C@@H](NC(=O)c2c[nH]c3c(-c4c(OCC5CC5)ccc5c4OCO5)ncnc23)C1` [Example 15, 4-(5-Cyclopropylmethoxy-benzo[1,3]dioxol-4-yl)-5H-pyrrolo[3,2-d]pyrimidine-7-carboxylic acid ((R)-1-acetyl-pyrrolidin-3-yl)-amide] showed an IC50 of 1000 pM.

On to `O=C(N[C@@H]1CCN(C(=O)C2CC2)C1)c1c[nH]c2c(-c3c(OCC4CC4)ccc4c3OCO4)ncnc12` [Example 16, 4-(5-Cyclopropylmethoxy-benzo[1,3]dioxol-4-yl)-5H-pyrrolo[3,2-d]pyrimidine-7-carboxylic acid [(R)-1-(1-cyclopropyl-methanoyl)-pyrrolidin-3-yl]amide], for which it took 389 pM to reach half-maximal inhibition (IC50). This IC50 is about 2.6-fold lower than that of the compound before.

Take `CCOC(=O)N1CC[C@@H](NC(=O)c2c[nH]c3c(-c4c(OCC5CC5)ccc5c4OCO5)ncnc23)C1` [Example 17, (R)-3-({1-[4-(5-Cyclopropylmethoxy-benzo[1,3]dioxol-4-yl)-5H-pyrrolo[3,2-d]pyrimidin-7-yl]-methanoyl}-amino)-pyrrolidine-1-carboxylic acid ethyl ester]: the IC50 is 339 pM.

`O=CN1CC[C@H](NC(=O)c2c[nH]c3c(-c4c(OCC5CC5)ccc5c4OCO5)ncnc23)C1` [Example 18, 4-(5-Cyclopropylmethoxy-benzo[1,3]dioxol-4-yl)-5H-pyrrolo[3,2-d]pyrimidine-7-carboxylic acid ((S)-1-formyl-pyrrolidin-3-yl)-amide] had an IC50 of 1820 pM.

As for `CC(=O)N1CC[C@H](NC(=O)c2c[nH]c3c(-c4c(OCC5CC5)ccc5c4OCO5)ncnc23)C1` [Example 19, 4-(5-Cyclopropylmethoxy-benzo[1,3]dioxol-4-yl)-5H-pyrrolo[3,2-d]pyrimidine-7-carboxylic acid ((S)-1-acetyl-pyrrolidin-3-yl)-amide], the IC50 is 2450 pM.

As to `O=C(N[C@H]1CCN(C(=O)C2CC2)C1)c1c[nH]c2c(-c3c(OCC4CC4)ccc4c3OCO4)ncnc12` [Example 20, 4-(5-Cyclopropylmethoxy-benzo[1,3]dioxol-4-yl)-5H-pyrrolo[3,2-d]pyrimidine-7-carboxylic acid [(S)-1-(1-cyclopropyl-methanoyl)-pyrrolidin-3-yl]amide], the IC50 is 537 pM.
